Data from paper PMC10673995, “Discovery of a novel cardiac-specific myosin modulator using artificial intelligence-based virtual screening” (Nature Communications, 2023).
“And” between values parts separate entries of the source, which are not always exact repeats. Identical values can stand only once.

Tested on: isolated Langendorff-perfused rat hearts
Experiment: Langendorff-perfused rat hearts, haemodynamic parameters
Set-up: key to LVSP, individual hearts / LVEDP, individual hearts: pressure in mmHg; Max (Figure 5c): unit not given here
Conditions: for Max (Figure 5c): one column per heart; for LVSP representative trace, ON: during perfusion with compound
Experimental: Next, we tested for the functional effects of F10 in isolated Langendorff-perfused rat hearts. Hearts were initially stabilized in modified Krebs-Henseleit (KH) solution for about 25–30 min and subsequently perfused with KH solution containing 20 μmol L^−1 F10 for 5 mins to reach a new steady state.
Rat hearts were Langendorff-perfused as described previously. Briefly, Wistar rats (Rattus norvegicus, male, 200–250 g, 7 weeks old) were anesthetized by injection of 0.9 mL sodium pentobarbitone 20% (w/v). […] The aorta was cannulated and secured with sutures (Mersilk 3‐0; Ethicon, Somerville, NJ, USA). Hearts were perfused at a constant perfusion pressure of 70 ± 2 mmHg using a peristaltic pump (Gilson Minipuls 4, Middleton, WI, USA) and a feedback control system (STH Pump Controller; AD Instruments, Oxford, UK). […] A fluid‐filled balloon, attached to a pressure transducer, was inserted into the left ventricle and inflated to give an end‐diastolic pressure between 3 and 8 mmHg. Left ventricular pressure (LVP), perfusion pressure, coronary flow and arterial and venous oxygen tensions were recorded using a PowerLab recorder and LabChart 8.0 software (ADInstruments). Functional parameters were averaged for ∼80 cardiac cycles at 5 min intervals.

[1] = 20 μmol L^−1 F10 or 1 μmol L^−1 Mavacamten
[2] = Time 11 min, during perfusion with 20 μmol L^−1 F10 or 1 μmol L^-1 Mavacamten
[3] = Time 12 min, during perfusion with 20 μmol L^−1 F10 or 1 μmol L^-1 Mavacamten
[4] = Time 13 min, during perfusion with 20 μmol L^−1 F10 or 1 μmol L^-1 Mavacamten
[5] = Time 14 min, during perfusion with 20 μmol L^−1 F10 or 1 μmol L^-1 Mavacamten
[6] = Time 15 min, during perfusion with 20 μmol L^−1 F10 or 1 μmol L^-1 Mavacamten

CCc1cc2c(=O)n(NC(=S)NC(C)C)cnc2s1 [F10]
decrease of LVSP (20 μmol L^−1 F10): about 65% | time to LVSP decrease (20 μmol L^−1 F10): 2 to 3 min | LVEDP (20 μmol L^−1 F10, baseline 1.9 ± 0.2): 22.0 ± 1.1 mmHg | Coronary flow (20 μmol L^−1 F10, baseline 15.6 ± 1.7): 16.7 ± 2.3 mL/min | LVSP (left ventricular systolic pressure) (20 μmol L^−1 F10, baseline 168.0 ± 8.5): 58.3 ± 2.2 mmHg and ~60 mmHg | Heart rate (20 μmol L^−1 F10, baseline 303 ± 8): 300 ± 4 bpm | dP dt-1max (20 μmol L^−1 F10, baseline 3978.8 ± 108.0): 1329.0 ± 153.8 mmHg s-1 | dP dt-1min (20 μmol L^−1 F10, baseline -3352.4 ± 134.4): -1300.0 ± 104.2 mmHg s-1 | effect on coronary perfusion / coronary flow [1]: without, however, affecting | effect on heart rate [1]: without, however, affecting | effect on left ventricular end-diastolic pressure (LVEDP) [1]: slightly increased | Max (Figure 5c) (Time 0 min): 4538.86 and 3737.57 and 4104.74 and 3514.73 | Max (Figure 5c) (Time 1 min): 4533.2 and 3831.26 and 4064.23 and 3491.94 | Max (Figure 5c) (Time 2 min): 4496.16 and 3879.38 and 4046.5 and 3811.01 | Max (Figure 5c) (Time 3 min): 4752.62 and 3481.82 and 4079.42 and 3811 | Max (Figure 5c) (Time 4 min): 4748.26 and 3745.17 and 3942.68 and 3866.71 | Max (Figure 5c) (Time 5 min): 4784.79 and 3724.91 and 3914.83 and 3735.04 | Max (Figure 5c) (Time 6 min): 4906.21 and 3922.42 and 4049.03 and 3689.46 | Max (Figure 5c) (Time 7 min): 4229.13 and 4155.39 and 4130.07 and 3504.61 | Max (Figure 5c) (Time 8 min): 3838.64 and 3904.7 and 4175.65 and 3570.44 | Max (Figure 5c) (Time 9 min): 4069.64 and 3864.18 and 4233.89 and 3747.7 | Max (Figure 5c) (Time 10 min): 4016.14 and 3757.83 and 4254.14 and 3608.43 | LVEDP, individual hearts [2]: 15.6 and 9.2 (2×) and 12.7 | LVSP, individual hearts [2]: 111 and 115 and 127 and 112 | Max (Figure 5c) (Time 11 min): 2272.52 and 2689.23 and 2643.65 and 2375.23 | LVEDP, individual hearts [3]: 29.6 and 15 and 19.6 and 15.9 | LVSP, individual hearts [3]: 61 and 72 and 67 and 69 | Max (Figure 5c) (Time 12 min): 1178.7 and 1696.59 and 1306.63 and 1372.47 | LVEDP, individual hearts [4]: 33.1 and 16.4 and 22.8 and 17.5 | LVSP, individual hearts [4]: 53 and 61 and 54 and 64 | Max (Figure 5c) (Time 13 min): 944.61 and 1258.52 and 1063.54 and 1212.94 | LVEDP, individual hearts [5]: 33.5 and 16.7 and 22.2 and 17.6 | LVSP, individual hearts [5]: 53 and 62 and 55 and 63 | LVEDP, individual hearts [6]: 24.3 and 20.65 and 23.5 and 19.6 | LVSP, individual hearts [6]: 54 and 60 and 59 and 62 | Max (Figure 5c) (Time 15 min): 1778.6 and 1228.13 and 1081.26 | LVEDP, individual hearts (Time 16 min, after washout): 10.1 and 9 and 13.9 and 11.2 | LVSP, individual hearts (Time 16 min, after washout): 56 and 118 and 105 and 99 | Max (Figure 5c) (Time 16 min): 3660.62 and 2787.98 and 2279.01 and 1886.51 | LVEDP, individual hearts (Time 17 min, after washout): 4.9 and 3.7 and 8.8 and 5.7 | LVSP, individual hearts (Time 17 min, after washout): 80 and 162 and 174 and 148 | Max (Figure 5c) (Time 17 min): 4729.41 and 3935.08 and 3990.79 and 3096.92 | LVEDP, individual hearts (Time 18 min, after washout): 3.9 and 2 and 7.3 (2×) | LVSP, individual hearts (Time 18 min, after washout): 157 and 184 and 161 and 128 | Max (Figure 5c) (Time 18 min): 4833.67 and 4428.87 and 3509.67 and 2539.83 | LVEDP, individual hearts (Time 19 min, after washout): 4.5 and 0 and 5.9 and 6.4 | LVSP, individual hearts (Time 19 min, after washout): 189 and 183 and 170 and 127 | Max (Figure 5c) (Time 19 min): 4740.03 and 4469.38 and 3319.75 and 2476.52 | LVEDP, individual hearts (Time 20 min, after washout): 4.8 and 1.5 and 7.4 and 6.4 | LVSP, individual hearts (Time 20 min, after washout): 198 and 188 and 151 and 124 | Max (Figure 5c) (Time 20 min): 4601.11 and 4596 and 3177.95 and 2499.31 | LVEDP, individual hearts (Time 21 min, after washout): 3.4 and 1.5 and 7.5 and 6 | LVSP, individual hearts (Time 21 min, after washout): 199 and 191 and 151 and 124 | Max (Figure 5c) (Time 21 min): 4625.81 and 4497.24 and 3228.59 and 2473.99 | LVEDP, individual hearts (Time 22 min, after washout): 0.7 and 0.5 and 7.5 and 6.6 | LVSP, individual hearts (Time 22 min, after washout): 200 and 181 and 145 and 127 | Max (Figure 5c) (Time 22 min): 4517.25 and 4112.34 and 3099.45 and 2489.18 | LVEDP, individual hearts (Time 23 min, after washout): 3.5 and 0.4 and 5.8 and 6.4 | LVSP, individual hearts (Time 23 min, after washout): 202 and 174 and 144 and 129 | Max (Figure 5c) (Time 23 min): 4435.96 and 3988.26 and 3074.13 and 2524.63 | LVEDP, individual hearts (Time 24 min, after washout): 3.4 and 1.5 and 6.4 and 5.5 | LVSP, individual hearts (Time 24 min, after washout): 196 and 173 and 146 and 133 | Max (Figure 5c) (Time 24 min): 4141.16 and 3968 and 3132.37 and 2582.87 | LVEDP, individual hearts (Time 25 min, after washout): 2.4 and 0.2 and 5.3 and 4.7 | LVSP, individual hearts (Time 25 min, after washout): 195 and 173 and 151 and 139 | Max (Figure 5c) (Time 25 min): 4228.11 and 3945.21 and 3241.25 and 2668.97 | LVSP representative trace, OFF (after washout, t 0 s): 26.9301 mmHg | LVSP representative trace, OFF (after washout, t 10 s): 27.9144 mmHg | LVSP representative trace, OFF (after washout, t 20 s): 30.1929 mmHg | LVSP representative trace, OFF (after washout, t 30 s): 33.9204 mmHg | LVSP representative trace, OFF (after washout, t 40 s): 39.0616 mmHg | LVSP representative trace, OFF (after washout, t 50 s): 45.8972 mmHg | LVSP representative trace, OFF (after washout, t 60 s): 54.0831 mmHg | LVSP representative trace, OFF (after washout, t 70 s): 63.6019 mmHg | LVSP representative trace, OFF (after washout, t 80 s): 75.1964 mmHg | LVSP representative trace, OFF (after washout, t 90 s): 88.9731 mmHg | LVSP representative trace, OFF (after washout, t 100 s): 99.8102 mmHg | LVSP representative trace, OFF (after washout, t 110 s): 110.826 mmHg | LVSP representative trace, OFF (after washout, t 120 s): 122.733 mmHg | LVSP representative trace, OFF (after washout, t 130 s): 132.379 mmHg | LVSP representative trace, OFF (after washout, t 140 s): 138.465 mmHg | LVSP representative trace, OFF (after washout, t 150 s): 148.942 mmHg | LVSP representative trace, OFF (after washout, t 160 s): 154.992 mmHg | LVSP representative trace, OFF (after washout, t 170 s): 158.488 mmHg | LVSP representative trace, OFF (after washout, t 180 s): 163.133 mmHg | LVSP representative trace, OFF (after washout, t 190 s): 167.458 mmHg | LVSP representative trace, OFF (after washout, t 200 s): 171.598 mmHg | LVSP representative trace, OFF (after washout, t 210 s): 175.866 mmHg | LVSP representative trace, OFF (after washout, t 220 s): 181.264 mmHg | LVSP representative trace, OFF (after washout, t 230 s): 184.759 mmHg | LVSP representative trace, OFF (after washout, t 240 s): 185.799 mmHg | LVSP representative trace, ON (t 0 s): 184.006 mmHg | LVSP representative trace, ON (t 10 s): 181.455 mmHg | LVSP representative trace, ON (t 20 s): 172.654 mmHg | LVSP representative trace, ON (t 30 s): 155.565 mmHg | LVSP representative trace, ON (t 40 s): 123.466 mmHg | LVSP representative trace, ON (t 50 s): 94.0285 mmHg | LVSP representative trace, ON (t 60 s): 73.0453 mmHg | LVSP representative trace, ON (t 70 s): 48.8284 mmHg | LVSP representative trace, ON (t 80 s): 40.271 mmHg | LVSP representative trace, ON (t 90 s): 34.4969 mmHg | LVSP representative trace, ON (t 100 s): 31.9133 mmHg | LVSP representative trace, ON (t 110 s): 30.398 mmHg | LVSP representative trace, ON (t 120 s): 28.7612 mmHg | LVSP representative trace, ON (t 130 s): 28.2624 mmHg | LVSP representative trace, ON (t 140 s): 27.1705 mmHg | Coronary flow (individual hearts): 18.7 mL/min and 18.0 mL/min and 20.0 mL/min and 10.0 mL/min | Heart rate (individual hearts): 295.0 bpm and 311.0 bpm and 292.0 bpm and 302.0 bpm | LVEDP (individual hearts): 30.3 mmHg and 17.9 mmHg and 22.8 mmHg and 18.2 mmHg | LVSP (individual hearts): 53.3 mmHg and 61.0 mmHg and 56.0 mmHg and 63.0 mmHg | dP dt-1max (individual hearts): 1778.6 mmHg s-1 and 1228.1 mmHg s-1 (2×) and 1081.3 mmHg s-1 | dP dt-1min (individual hearts): -1606.8 mmHg s-1 and -1233.2 mmHg s-1 and -1142.0 mmHg s-1 and -1218.0 mmHg s-1 | reversibility of the effect on washout (perfusion with KH solution in the absence of F10): completely reversible
